{"source": "patent US5753789A", "about": "“Oligonucleotides containing L-nucleosides” (priority 1996, dated 1998)", "key": {"[1]": {"assay": "Cytotoxicity in H1 cells (cell count)", "type": "cell-based", "settings": "human", "description": "(§1) Inhibitory effect of compounds on EBV: The CD50 was performed by\nexposing H1 cells to different concentrations of the compounds in normal\ngrowth medium at 37° C. for 72 hours; the cells were then counted\nand compared with controls. H1 cells were treated for 5 days and the […]"}, "EBV": {"system": "EBV", "assay": "Inhibitory effect of compounds on EBV (virus production in H1 cells, bioassay of EBV DP activity in Raji cells)", "type": "cell-based, Epstein-Barr virus", "settings": "for Therapeutic Index (CD50/ID90): CD50 in H1 cells / ID90 for EBV; for IC90: human gammaherpesvirus 4, Raji, 120 h, EBV, H1 cells treated for 5 days, bioassay, read-out: ID90 (the source's name)", "description": "(§2) H1 cells were maintained in […] growth for two days prior to the initiation of treatment. The cells were centrifuged at 600 g for 10 min. at room temperature to separate them from the medium containing pre-existing virus particles. The H1 cells were seeded in 24 well plates at a density of 1×10^5 cells per well in 2 ml of fresh medium with or without drug and incubated at 37° C. for 5 days. The medium containing virion was saved and used for evaluating the inhibitory effect of drugs on virus production and infectivity by use of a bioassay. The virion were pelleted from the cell free medium by centrifugation at 45,000 rpm for 90 min. in a SW-50 Ti rotor (Beckman). The virion were resuspended in 1 ml growth medium and then used to infect 1×10^6 Raji cells for 48 hours. Since the level of EBV DP activity in Raji cells post superinfection is proportional to the number of virions added, the EBV specific DP activity induced was able to be measured. The inhibitory drug effect was calculated by comparing the EBV DP activity to multiple dilution controls.\nas §1\nand compared with controls. H1 cells were treated for 5 days and the\nID90 was determined by bioassay."}, "HBV": {"system": "HBV", "assay": "Biological activity against HBV in 2.2.15 cells (HBV DNA, Southern analysis)", "type": "cell-based", "settings": "Hepatitis B virus, 144 h, read-out: Anti-HBV Activity ID50", "description": "Human hepatoma cells with HBV (2.2.15 cells) were used in the assay. These cells were grown to confluence in minimal essential medium with 10% fetal bovine serum. The media was changed at 3-day intervals. At confluence the treatment with the drugs was initiated and then continued for three days. Another addition of the same concentration of the drug was given at this point after removal of the media from the cultures and cultures maintained for an additional period of 3 days. The medium after the 6-day treatment was harvested and the viral particles precipitated by the polyethylene glycol method. The particles were subsequently digested and then processed for Southern analysis. The blots were hybridized to an HBV-specific probe and viral DNA amounts assessed in comparison to DNA levels from cultures not treated with the drugs. The genomic DNA was digested with Hind III and subjected to Southern analysis. Levels of the episomal DNA were determined in relation to the integrated HBV DNA. The drug concentrations that cause 50% inhibition of the DNA (ID50) as compared to the controls were calculated."}, "[2]": {"assay": "Toxicity in BDF1 female mice (body weight over thirty days)", "type": "in vivo", "settings": "10 mg/kg and 50 mg/kg bid", "description": "FIG. 13a illustrates the change in body weight over thirty days of control BDF1 female mice. FIGS. 13b and 13c illustrate the change in body weight over thirty days of BDFI female mice dosed with 10 mg/kg (13b) and 50 mg/kg (13c) bid of L-(-)-FMAU. The body weight presented represents the mean and standard deviation of that of five to seven mice."}, "[3]": {"assay": "Clearance of L-(-)-FMAU from liver after oral administration", "type": "in vivo", "settings": "mice, 10 or 50 mg/kg", "description": "(§3) The clearance of L-(-)-FMAU from the plasma and liver of mice after oral administration was evaluated. Mice were […] with L-(-)-FMAU which was tritium labeled (radiospecificity of […]).\n(§4) FIG. 11 is a graph of the plasma concentration of L-(-)-FMAU in mice after oral administration over time, and FIG. 12 is a graph of the concentration of L-(-)-FMAU in mouse liver after oral administration over time (cross, 10 mg/kg administered bid (bi-daily) for 30 days prior to pharmacokinetic study and then study carried out on day thirty-one on administration of same concentration; dark circle, 50 mg/kg administered bid for 30 days prior to study and then study carried out on day thirty-one on administration of same concentration; open circle, 50 mg/kg administered for the first time on the first day of the study).\n(§5) At the times indicated (see FIGS. […]) the mice were bled from their retro-orbital sinus using heparinized capillaries. The plasma was extracted with trichloroacetic acid and neutralized with freon/trioctylamine. Supernatants were directly counted and the concentration calculated."}, "[4]": {"system": "mitochondrial DNA content in H1 cells", "assay": "Mitochondrial DNA content of H1 cells (slot blot assay)", "type": "cell-based, human", "settings": "1 mM, 6 days", "description": "as §2\nSlot Blot Assay--The amount of mitochondrial DNA was measured by the slot blot method (2). […] The amount of mitochondrial DNA in the treated and non-treated H1 cells was quantified by densitometer (LKB Ultroscan XL)."}, "[5]": {"assay": "Clinical chemistry of mouse plasma after L-(-)-FMAU treatment", "type": "in vivo", "settings": "10 or 50 mg/kg bid, thirty days", "description": "FIGS. 14-20 provide the clinical chemistry of mouse plasma after administration of L-(-)-FMAU at 10 mg/kg (three mice) or 50 mg/kg (three mice) bid for thirty days."}, "[6]": {"assay": "Clearance of L-(-)-FMAU from plasma after oral administration", "type": "in vivo", "settings": "mice, 10 or 50 mg/kg", "description": "as §3, §4, §5"}, "[7]": {"settings": "37° C., 72 hours, Table 2, read-out: CD50"}, "[8]": {"settings": "Table I, read-out: (H1 cells) CD50"}}, "note": "Where two headings read alike, the source gives them in different places."}
{"smiles": "Nc1nc2c(ncn2CCC(CO)CO)c(=O)[nH]1", "note": "[PCV]", "values": [{"measurement": "CC50 at 72 h", "setting": "[1]; [7]", "value": "500 ± 55", "unit": "µM"}, {"measurement": "Therapeutic Index (CD50/ID90)", "setting": "EBV", "value": 25}]}
{"smiles": "O=c1[nH]c(=O)n([C@@H]2O[C@H](CO)[C@@H](O)[C@@H]2F)cc1I", "note": "[D-FIAU]", "values": [{"measurement": "CC50 at 72 h", "setting": "[1]; [7]", "value": "20 ± 4", "unit": "µM"}, {"measurement": "Therapeutic Index (CD50/ID90)", "setting": "EBV", "value": 40}, {"measurement": "IC90", "setting": "EBV", "value": "0.5 ± 0.05", "unit": "µM"}]}
{"smiles": "Nc1nc2c(ncn2COCCO)c(=O)[nH]1", "note": "[ACV]", "values": [{"measurement": "CC50 at 72 h", "setting": "[1]; [7]", "value": "1000 ± 75", "unit": "µM"}, {"measurement": "Therapeutic Index (CD50/ID90)", "setting": "EBV", "value": 20}]}
{"smiles": "Nc1nc2c(ncn2COC(CO)CO)c(=O)[nH]1", "note": "[DHPG]", "values": [{"measurement": "CC50 at 72 h", "setting": "[1]; [7]", "value": "75 ± 6", "unit": "µM"}, {"measurement": "Therapeutic Index (CD50/ID90)", "setting": "EBV", "value": 15}]}
{"smiles": "O=c1[nH]c(=O)n([C@H]2O[C@@H](CO)[C@H](O)[C@H]2F)cc1I", "note": "[L-FIAU, 2'-fluoro-5-iodo-β-L-arabinofuranosyluridine]", "values": [{"measurement": "CC50 at 72 h", "setting": "[1]; [7]", "value": "240 ± 20", "unit": "µM"}, {"measurement": "Therapeutic Index (CD50/ID90)", "setting": "EBV", "value": 12}, {"measurement": "IC90", "setting": "EBV", "value": "20 ± 4", "unit": "µM"}]}
{"smiles": "Cc1cn([C@@H]2O[C@H](CO)[C@@H](O)[C@@H]2F)c(=O)[nH]c1=O", "note": "[D-FMAU]", "values": [{"measurement": "CC50 at 72 h", "setting": "[1]; [8]", "value": 50, "unit": "µM"}, {"measurement": "Therapeutic Index (CD50/ID90)", "setting": "EBV", "value": 50}, {"measurement": "IC50", "setting": "HBV", "value": 2, "unit": "µM"}]}
{"smiles": "O=C(O)P(=O)(O)O", "note": "[PFA]", "values": [{"measurement": "CC50 at 72 h", "setting": "[1]; [7]", "value": "1200 ± 100", "unit": "µM"}, {"measurement": "Therapeutic Index (CD50/ID90)", "setting": "EBV", "value": 16}]}
{"smiles": "CCc1cn([C@@H]2O[C@H](CO)[C@@H](O)[C@@H]2F)c(=O)[nH]c1=O", "note": "[D-FEAU]", "values": [{"measurement": "CC50 at 72 h", "setting": "[1]; [8]", "value": 2000, "unit": "µM"}, {"measurement": "Therapeutic Index (CD50/ID90)", "setting": "EBV", "value": 2000}]}
{"smiles": "Nc1nc(=O)n([C@@H]2O[C@H](CO)[C@@H](O)[C@@H]2F)cc1I", "note": "[D-FIAC]", "values": [{"measurement": "CC50 at 72 h", "setting": "[1]; [7]", "value": "125 ± 15", "unit": "µM"}, {"measurement": "Therapeutic Index (CD50/ID90)", "setting": "EBV", "value": 25}, {"measurement": "IC90", "setting": "EBV", "value": "5 ± 0.5", "unit": "µM"}]}
{"smiles": "CCc1cn([C@H]2O[C@@H](CO)[C@H](O)[C@H]2F)c(=O)[nH]c1=O", "note": "[L-FEAU, 2'-fluoro-5-ethyl-β-L-arabinofuranosyluridine]", "values": [{"measurement": "CC50 at 72 h", "setting": "[1]; [8]", "value": 900, "unit": "µM"}, {"measurement": "Therapeutic Index (CD50/ID90)", "setting": "EBV", "value": 15}, {"measurement": "IC90", "setting": "EBV", "value": "60 ± 11", "unit": "µM"}]}
{"smiles": "Cc1cn([C@H]2O[C@@H](CO)[C@H](O)[C@H]2F)c(=O)[nH]c1=O", "note": "[L-FMAU, 2'-fluoro-5-methyl-β-L-arabinofuranosyluridine]", "values": [{"measurement": "Change in body weight", "setting": "[2]", "value": "did not appear to significantly affect the weight of the mice over thirty days"}, {"measurement": "Tolerability", "setting": "[2]", "value": "well tolerated"}, {"measurement": "CC50 at 72 h", "setting": "[1]; [8]", "value": 1000, "unit": "µM"}, {"measurement": "Clearance from liver", "setting": "[3]", "value": "substantially cleared from both plasma and liver after four hours"}, {"measurement": "Time of peak concentration in liver", "setting": "[3]", "value": "approximately one"}, {"measurement": "Inhibition of mitochondrial DNA content", "setting": "[4]", "value": "No inhibition of mitochondrial DNA content in H1 cells was observed"}, {"measurement": "Therapeutic Index (CD50/ID90)", "setting": "EBV", "value": 200}, {"measurement": "IC50", "setting": "HBV", "value": 0.1, "unit": "µM"}, {"measurement": "ALT (SGPT) in mouse plasma", "setting": "[5]", "value": "With the exception of mouse 50-2 (for both SGOT and SGPT) and mouse 10-2 (for SGOT only), the enzyme levels of the treated mice are not different from those of the control mice"}, {"measurement": "AST (SGOT) in mouse plasma", "setting": "[5]", "value": "With the exception of mouse 50-2 (for both SGOT and SGPT) and mouse 10-2 (for SGOT only), the enzyme levels of the treated mice are not different from those of the control mice"}, {"measurement": "Creatinine in mouse plasma", "setting": "[5]", "value": "With the exception of mouse 50-2, the creatinine levels of the treated mice are not different from those of the control mice"}, {"measurement": "Lactic acid in mouse plasma", "setting": "[5]", "value": "not significantly differnt from those of the control mice"}, {"measurement": "Lactic dehydrogenase in mouse plasma", "setting": "[5]", "value": "not significantly differnt from those of the control mice"}, {"measurement": "Alkaline phosphatase in mouse plasma", "setting": "[5]; normal human level 30-114 U/L", "value": "somewhat higher than the normal human level"}, {"measurement": "Total bilirubin in mouse plasma", "setting": "[5]; normal human range less than 1.2 mg/dL", "value": "fall within the normal human range"}, {"measurement": "Clearance from plasma", "setting": "[6]", "value": "substantially cleared from both plasma and liver after four hours"}, {"measurement": "Time of peak concentration in plasma", "setting": "[6]", "value": "approximately one"}]}
{"smiles": "Nc1nc(=O)n([C@H]2O[C@@H](CO)[C@H](O)[C@H]2F)cc1I", "note": "[L-FIAC, 2'-fluoro-5-iodo-β-L-arabinofuranosylcytosine]", "values": [{"measurement": "CC50 at 72 h", "setting": "[1]; [7]", "value": "400 ± 35", "unit": "µM"}, {"measurement": "Therapeutic Index (CD50/ID90)", "setting": "EBV", "value": "> 40"}, {"measurement": "IC90", "setting": "EBV", "value": "< 10", "unit": "µM"}]}
